Patent US20240052316A1, “STEM CELL PRIMING COMPOSITION AND PRIMED STEM CELL” (SCM LIFESCIENCE CO., LTD., priority 2020, published 2024)

System: IDO and TSG6
Test: qRT-PCR of IDO and TSG6 expression in primed mesenchymal stem cells (joint statements)
Assay type: cell-based
Settings: 24 hours; for expression of IDO and TSG6 compared to untreated control group 0: Table 1 groups, FIG. 4; for lowest effective concentration capable of inducing significantly increased expression of both TSG6 and IDO: tested 5, 10, 20 ng/ml (TNF-α, IFN-γ) and 10, 20, 40 ng/ml (IFN-α), FIGS. 1-3
Experimental: In a 37° C. and 5% CO2 incubator, mesenchymal stem cells in a storage state (LN2 tank storage) were thawed and cultured, and at this time, the cells were cultured in a medium (DMEM, alpha-MEM) containing 10% FBS or 4% hPL until proliferated to a cell confluence of about 80%. The cultured mesenchymal stem cells were seeded in a 100 mm dish, and treated with candidate substances for reinforcing the functions of the mesenchymal stem cells for 24 hours, and then the concentrations of primary candidate substances for reinforcing the functions were set.
TNF-α and IFN-γIFN-α were selected as the primary candidate substances, and in order to confirm the lowest effective concentration capable of increasing the expression of TNFα-stimulated gene-6 (TSG6) and indoleamine 2,3-dioxygenase (IDO) to confirm the reinforced functions, the stem cells were treated with 5, 10, and 20 ng/ml of TNF-α, 5, 10, and 20 ng/ml of IFN-γ, and 10, 20, and 40 ng/ml of IFN-α, respectively, and changes in expression of TSG6 and IDO were confirmed.
The IDO was known as an immunomodulatory factor that inhibited the proliferation of immune cells such as T cells by converting tryptophan, which was essential for T cell proliferation, into kynurenine, and the TSG6 was known as an anti-inflammatory regulator secreted by mesenchymal stem cells. After culturing the stem cells, total RNA was isolated using TRIzol (Invitrogen), and then cDNA was synthesized from total RNA using PrimeScriptTMRT reagent Kit with gDNA Eraser (TaKaRa), and qRT-PCR was performed. The results of TSG6 and IDO according to the concentration of each candidate substance were illustrated in FIGS. 1, 2 and 3.
Through Example 1, candidate substances and concentration combinations thereof selected to search for more functionally reinforced compositions based on the candidate substances and the lowest effective concentrations confirmed to induce the reinforced functions of stem cells were set as shown in Table 1. Mesenchymal stem cells were treated with the candidate combinations described in Table 1 below for 24 hours, and the stem cells were cultured as in Example 1, and then total RNA was isolated using TRIzol (Invitrogen). Then, qRT-PCR was performed by synthesizing cDNA from total RNA using the PrimeScript™ RT reagent Kit with gDNA Eraser (TaKaRa).
Vitamins were known to improve the proliferative ability of stem cells and maintain the stemness of stem cells when added during a stem cell culture process. Accordingly, various vitamins were treated in the stem cell culture process, and experiments were performed to confirm whether or not vitamins could achieve anti-inflammatory and immune function reinforcing effects of stem cells. Specifically, the stem cells were treated with various types of vitamins shown in Table 2 according to the method described in Example 1, and the results of confirming changes in expression of IDO and TSG6 according to treatment with each candidate substance were illustrated in FIG. 5.

Substance | expression of IDO and TSG6 compared to untreated control group 0 | lowest effective concentration capable of inducing significantly increased expression of both TSG6 and IDO
IFN-α | increased expression of IDO and TSG6 | 20 ng/mL
IFN-γ: cytokine, primary candidate substance for priming stem cells, 10 ng/ml | increased expression of IDO and TSG6 | 10 ng/mL
TNF-α | increased expression of IDO and TSG6 | 10 ng/mL
